Experimental data reported in BindingDB's records for doi:10.1016/s0960-894x(02)00516-4 (Atherogenics, 2002).

experiment: Inhibition of TNF-alpha inducible Vascular cell adhesion molecule-1 expression.

Row | IC50 | Compound
1 | 20 µM | CC(C)(Sc1cc(C(C)(C)C)c(O)c(C(C)(C)C)c1)Sc1cc(C(C)(C)C)c(OC(=O)C[C@@H](NC(=O)Cc2ccccc2)C(=O)O)c(C(C)(C)C)c1 [(R)-2-Phenylacetylamino-succinic acid 4-{2,6-di-tert-butyl-4-[1-(3,5-di-tert-butyl-4-hydroxy-phenylsulfanyl)-1-methyl-ethylsulfanyl]-phenyl} ester]
2 | > 50 µM | CC(C)(Sc1cc(C(C)(C)C)c(OC(=O)CCC(=O)O)c(C(C)(C)C)c1)Sc1cc(C(C)(C)C)c(OC(=O)CCC(=O)O)c(C(C)(C)C)c1 [Succinic acid mono-(2,6-di-tert-butyl-4-{1-[3,5-di-tert-butyl-4-(3-carboxy-propionyloxy)-phenylsulfanyl]-1-methyl-ethylsulfanyl}-phenyl) ester]
3 | 55 µM | CC(C)(Sc1cc(C(C)(C)C)c(O)c(C(C)(C)C)c1)Sc1cc(C(C)(C)C)c(OC(=O)CCCCO)c(C(C)(C)C)c1 [5-Hydroxy-pentanoicacid2,6-di-tert-butyl-4-[1-(3,5-di-tert-butyl-4-hydroxy-phenylsulfanyl)-1-methyl-ethylsulfanyl]-phenyl ester]
4 | 9 µM | CC(C)(Sc1cc(C(C)(C)C)c(O)c(C(C)(C)C)c1)Sc1cc(C(C)(C)C)c(OC(=O)CCCC(=O)O)c(C(C)(C)C)c1 [Pentanedioic acid mono-{2,6-di-tert-butyl-4-[1-(3,5-di-tert-butyl-4-hydroxy-phenylsulfanyl)-1-methyl-ethylsulfanyl]-phenyl} ester]
5 | 30 µM | CC(C)(Sc1cc(C(C)(C)C)c(O)c(C(C)(C)C)c1)Sc1cc(C(C)(C)C)c(OC(=O)CCO)c(C(C)(C)C)c1 [3-Hydroxy-propionic acid 2,6-di-tert-butyl-4-[1-(3,5-di-tert-butyl-4-hydroxy-phenylsulfanyl)-1-methyl-ethylsulfanyl]-phenyl ester]
6 | 100 µM | CC(C)(Sc1cc(C(C)(C)C)c(O)c(C(C)(C)C)c1)Sc1cc(C(C)(C)C)c(OC(=O)C(F)(F)C(F)(F)C(F)(F)C(=O)O)c(C(C)(C)C)c1 [2,2,3,3,4,4-Hexafluoro-pentanedioic acid mono-{2,6-di-tert-butyl-4-[1-(3,5-di-tert-butyl-4-hydroxy-phenylsulfanyl)-1-methyl-ethylsulfanyl]-phenyl} ester]
7 | 8 µM | CC(C)(Sc1cc(C(C)(C)C)c(O)c(C(C)(C)C)c1)Sc1cc(C(C)(C)C)c(OC(=O)CC(O)CO)c(C(C)(C)C)c1 (stereo not drawn) [3,4-Dihydroxy-butyric acid 2,6-di-tert-butyl-4-[1-(3,5-di-tert-butyl-4-hydroxy-phenylsulfanyl)-1-methyl-ethylsulfanyl]-phenyl ester]
8 | 110 µM | CC(C)(CO)CC(=O)Oc1c(C(C)(C)C)cc(SC(C)(C)Sc2cc(C(C)(C)C)c(O)c(C(C)(C)C)c2)cc1C(C)(C)C [4-Hydroxy-3,3-dimethyl-butyric acid 2,6-di-tert-butyl-4-[1-(3,5-di-tert-butyl-4-hydroxy-phenylsulfanyl)-1-methyl-ethylsulfanyl]-phenyl ester]
9 | 30 µM | CC(C)(Sc1cc(C(C)(C)C)c(O)c(C(C)(C)C)c1)Sc1cc(C(C)(C)C)c(OC(=O)CO)c(C(C)(C)C)c1 [Hydroxy-acetic acid 2,6-di-tert-butyl-4-[1-(3,5-di-tert-butyl-4-hydroxy-phenylsulfanyl)-1-methyl-ethylsulfanyl]-phenyl ester]
10 | 25 µM | CC(C)(Sc1cc(C(C)(C)C)c(O)c(C(C)(C)C)c1)Sc1cc(C(C)(C)C)c(OC(=O)[C@@H](O)CCC(=O)O)c(C(C)(C)C)c1 [(S)-2-Hydroxy-pentanedioic acid 1-{2,6-di-tert-butyl-4-[1-(3,5-di-tert-butyl-4-hydroxy-phenylsulfanyl)-1-methyl-ethylsulfanyl]-phenyl} ester]
11 | > 50 µM | CC(C)(Sc1cc(C(C)(C)C)c(O)c(C(C)(C)C)c1)Sc1cc(C(C)(C)C)c(OC(=O)C(=O)O)c(C(C)(C)C)c1 [Oxalic acid mono-{2,6-di-tert-butyl-4-[1-(3,5-di-tert-butyl-4-hydroxy-phenylsulfanyl)-1-methyl-ethylsulfanyl]-phenyl} ester]
12 | 37 µM | CC(C)(Sc1cc(C(C)(C)C)c(O)c(C(C)(C)C)c1)Sc1cc(C(C)(C)C)c(OC(=O)COCC(=O)O)c(C(C)(C)C)c1 [{2,6-Di-tert-butyl-4-[1-(3,5-di-tert-butyl-4-hydroxy-phenylsulfanyl)-1-methyl-ethylsulfanyl]-phenoxycarbonylmethoxy}-acetic acid]
13 | 6 µM | CC(C)(Sc1cc(C(C)(C)C)c(O)c(C(C)(C)C)c1)Sc1cc(C(C)(C)C)c(OC(=O)CCC(=O)O)c(C(C)(C)C)c1 [Succinic acid mono-{2,6-di-tert-butyl-4-[1-(3,5-di-tert-butyl-4-hydroxy-phenylsulfanyl)-1-methyl-ethylsulfanyl]-phenyl} ester]
14 | > 50 µM | CC(C)(Sc1cc(C(C)(C)C)c(O)c(C(C)(C)C)c1)Sc1cc(C(C)(C)C)c(O)c(C(C)(C)C)c1 [2,6-di-tert-butyl-4-(2-(3,5-di-tert-butyl-4-hydroxyphenylthio)propan-2-ylthio)phenol]
15 | 40 µM | CC(C)(Sc1cc(C(C)(C)C)c(O)c(C(C)(C)C)c1)Sc1cc(C(C)(C)C)c(OC(=O)CCCO)c(C(C)(C)C)c1 [4-Hydroxy-butyric acid 2,6-di-tert-butyl-4-[1-(3,5-di-tert-butyl-4-hydroxy-phenylsulfanyl)-1-methyl-ethylsulfanyl]-phenyl ester]
16 | 17 µM | CC(=O)O/C(=C\C(=O)Oc1c(C(C)(C)C)cc(SC(C)(C)Sc2cc(C(C)(C)C)c(O)c(C(C)(C)C)c2)cc1C(C)(C)C)C(=O)O [2,6-di(tert-butyl)-4-{1-[3,5-di(tert-butyl)-4-hydroxyphenylsulfanyl]-1-methylethylsulfanyl}phenyl 3-carboxylicacid-3-methylcarbonyloxy-(E)-2-propenoate]
17 | 40 µM | COC(=O)CCC(=O)Oc1c(C(C)(C)C)cc(SC(C)(C)Sc2cc(C(C)(C)C)c(O)c(C(C)(C)C)c2)cc1C(C)(C)C [Succinic acid 2,6-di-tert-butyl-4-[1-(3,5-di-tert-butyl-4-hydroxy-phenylsulfanyl)-1-methyl-ethylsulfanyl]-phenyl ester methyl ester]
18 | 45 µM | CC(C)(Sc1cc(C(C)(C)C)c(O)c(C(C)(C)C)c1)Sc1cc(C(C)(C)C)c(OC(=O)CCCCCCC(=O)O)c(C(C)(C)C)c1 [Octanedioic acid mono-{2,6-di-tert-butyl-4-[1-(3,5-di-tert-butyl-4-hydroxy-phenylsulfanyl)-1-methyl-ethylsulfanyl]-phenyl} ester]
